As a reminder, the IC50 is the concentration at which inhibition is half-maximal.

35 compounds from US8759522B2, “Inhibitors of protein tyrosine kinase activity” (Methylgene Inc., priority 2008, dated 2014) can be followed below.

The structures appear in SMILES notation. Some results are limits rather than exact numbers.

One assay concerns the target T1, VEGFR2 (KDR) (Homo sapiens, UniProt P35968).
T1 construct: made in house; host or cells: Sf9 cells (Spodoptera frugiperda), baculovirus (Bac-to-Bac)
Briefly: In vitro receptor tyrosine kinase assay (VEGF receptor KDR), DELFIA. It is filed as biochemical. To be noted: recombinant GST-VEGFR2 catalytic domain, ATP 0.6 uM, enzyme 5 nM. An excerpt:
In Vitro Receptor Tyrosine Kinase Assay (VEGF Receptor KDR)
This test measures the ability of compounds to inhibit the enzymatic activity of recombinant human VEGF receptor enzymatic activity.
A 1.6-kb cDNA corresponding to the catalytic domain of VEGFR2 (KDR) (Genbank accession number AF035121 amino acid 806 to 1356) is cloned into the Pst I site of the pDEST20 Gateway vector (Invitrogen) for the production of a GST-tagged version of that enzyme. This constuct is used to generate recombinant baculovirus using the Bac-to-Bac™ system according to the manucfacturer's instructions (Invitrogen).
The GST-VEGFR2806-1356 protein is expressed in Sf9 cells (Spodoptera frugiperda) upon infection with recombinant baculovirus construct. Briefly, Sf9 cells grown in suspension and maintained in serum-free medium (Sf900 II supplemented with gentamycin) at a cell density of about 2×10^6 cells/ml are infected with the above-mentioned viruses at a multiplicity of infection (MOI) of 0.1 during 72 hours at 27° C. with agitation at 120 rpm on a rotary shaker. Infected cells are harvested by centrifugation at 398 g for 15 min. Cell pellets are frozen at −80° C. until purification is performed.
All steps described in cell extraction and purification are performed at 4° C. Frozen Sf9 cell pellets infected with the GST-VEGFR2806-1356 recombinant baculovirus are thawed and gently resuspended in Buffer A (PBS pH 7.3 supplemented with 1 μg/ml pepstatin, 2 μg/ml Aprotinin and leupeptin, 50 μg/ml PMSF, 50 μg/ml TLCK and 10 μM E64 and 0.5 mM DTT) using 3 ml of buffer per gram of cells. Suspension is Dounce homogenized and 1% Triton X-100 is added to the homogenate after which it is centrifuged at 22500 g, 30 min., 4° C. The supernatant (cell extract) is used as starting material for purification of GST-VEGFR2806-1356.
The supernatant is loaded onto a GST-agarose column (Sigma) equilibrated with PBS pH 7.3. Following a four column volume (CV) wash with PBS pH 7.3+1% Triton X-100 and 4 CV wash with buffer B (50 mM Tris pH 8.0, 20% glycerol and 100mM NaCl), bound proteins are step eluted with 5 CV of buffer B supplemented with 5 mM DTT and 15 mM glutathion. GST-VEGFR2806-1356 enriched fractions from this chromatography step are pooled based on U.V. trace i.e. fractions with high O.D.280. Final GST-VEGFR2806-1356 protein preparations concentrations are about 0.7 mg/ml with purity approximating 70%. Purified GST-VEGFR2806-1356 protein stocks are aliquoted and frozen at −80° C. prior to use in enzymatic assay.
Inhibition of VEGFR/KDR is measured in a DELFIA™ assay (Perkin Elmer). The substrate poly(Glu4, Tyr) is immobilized onto black high-binding polystyrene 96-well plates. The coated plates are washed and stored at 4° C. During the assay, the enzyme is pre-incubated with inhibitor and Mg-ATP on ice in polypropylene 96-well plates for 4 minutes, and then transferred to the coated plates. The subsequent kinase reaction takes place at 30° C. for 10-30 minutes. ATP concentrations in the assay are 0.6 uM for VEGFR/KDR (2× the Km). Enzyme concentration is 5 nM. After incubation, the kinase reactions are quenched with EDTA and the plates are washed. Phosphorylated product is detected by incubation with Europium-labeled anti-phosphotyrosine MoAb. After washing the plates, bound MoAb is detected by time-resolved fluorescence in a Gemini SpectraMax reader (Molecular Devices). Compounds are evaluated over a range of concentrations and IC50's (concentration of compounds giving 50% inhibition of enzymatic activity) are determined. In the table, “a” indicates inhibitory activity at a concentration of less than 250 nanomolar; “b” indicates inhibitory activity at a concentration ≧250 but <500 nanomolar, “c” indicates inhibitory activity at ≧500 but <1000 nanomolar; and “d” indicates inhibitory activity ≧1000 nanomolar.

The test system of assay [1] is VEGF-dependent Erk phosphorylation in HUVEC cells. Briefly: VEGF-dependent Erk phosphorylation. It is filed as cell-based. The settings on record: Homo sapiens, 1.5 h compound, VEGF165 150 ng/ml, phospho ERK1/2 Western blot. An excerpt:
VEGF-Dependent Erk Phosphorylation
HUVEC cells were purchased from Cambrex Bio Science Walkersville, Inc and cultured according to the vendor's instructions. The full-length coding sequence of VEGF165 was cloned using the Gateway Cloning Technology (Invitrogen) for baculovirus expression Sf9 cells. VEGF165 was purified from conditioned media using a NaCl gradient elution from a HiTrap heparin column (GE Healthcare Life Sciences) followed by an imidazole gradient elution from a HiTrap chelating column (GE Healthcare Life Sciences), then buffer stored in PBS supplemented with 0.1% BSA and filter sterilized
Cells were seeded at 8000 cells/well of a 96 wells plate and grown for 48 hours. Cells were then grown overnight in serum and growth factor-free medium and exposed for 1.5 h to compounds dilutions. Following a 15 min incubation in medium, VEGF165 (150 ng/ml) cells were lysed in ice-cold lysis buffer (50 mM HEPES, pH 7.4, 150 mM NaCl, 1.5 mM MgCl2, 1% Triton X-100, 10% glycerol) containing 1 mM 4-(2 aminoethyl)benzenesulfonyl fluoride hydrochloride, 200 μM sodium orthovanadate, 1 mM sodium fluoride, 10 μg/mL leupeptin, 10 μg/mL aprotinin, 1 μg/mL pepstatin and 50 μg/mL Na-p-tosyl-L-lysine chloromethyl ketone hydrochloride and processed as Western blots to detect anti-phospho ERK1/2 (T202/Y204) (Cell Signaling Technologies).
lysates samples from single treatment wells were separated on 5-20% SDS-PAGE gels and immunobloting was performed using Immobilon polyvinylidene difluoride membranes (Amersham) according to the manufacturer's instructions.

T1 sequence (P35968 806-1356): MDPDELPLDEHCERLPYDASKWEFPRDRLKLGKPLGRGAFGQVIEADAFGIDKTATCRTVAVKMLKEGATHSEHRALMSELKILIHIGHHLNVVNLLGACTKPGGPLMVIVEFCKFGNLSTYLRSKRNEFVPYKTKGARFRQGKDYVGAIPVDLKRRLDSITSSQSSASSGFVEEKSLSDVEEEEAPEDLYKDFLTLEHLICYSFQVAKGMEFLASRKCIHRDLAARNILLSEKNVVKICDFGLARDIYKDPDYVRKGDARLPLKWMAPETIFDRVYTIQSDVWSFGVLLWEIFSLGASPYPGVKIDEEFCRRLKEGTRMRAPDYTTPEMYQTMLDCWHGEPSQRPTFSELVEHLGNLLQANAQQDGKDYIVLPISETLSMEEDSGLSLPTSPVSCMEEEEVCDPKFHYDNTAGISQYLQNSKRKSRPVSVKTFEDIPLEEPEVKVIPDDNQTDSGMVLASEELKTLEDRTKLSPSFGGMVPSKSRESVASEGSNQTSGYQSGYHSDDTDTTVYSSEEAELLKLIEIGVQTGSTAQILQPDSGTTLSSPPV

For the compound `COCCNCc1cccc(-c2cc3nccc(Oc4ccc(NC(=O)NC5CC5)cc4F)c3s2)n1`, the concentration for half-maximal inhibition (IC50) (at VEGFR2 (KDR); in assay [1]) was less than 250 nM each time. On to `COCCNCc1ccc(-c2cc3nccc(Oc4ccc(NC(=O)Nc5cccc(C(N)=O)c5)cc4F)c3s2)nc1`, for which the IC50 (on VEGFR2 (KDR); in assay [1]) was less than 250 nM in each case. For the compound `COCCNCc1ccc(-c2cc3nccc(Oc4ccc(NC(=O)Nc5cccc(S(C)(=O)=O)c5)cc4F)c3s2)nc1`, the IC50 (on VEGFR2 (KDR); in assay [1]) was less than 250 nM throughout. Take `COCCNCc1cnc(-c2cc3nccc(Oc4ccc(NC(=O)Nc5cc(C(F)(F)F)ccc5F)cc4F)c3s2)n1C`: the IC50 (at VEGFR2 (KDR); in assay [1]) was less than 250 nM throughout. On to `COCCNCc1cnc(-c2cc3nccc(Oc4ccc(NC(=O)Nc5ccc(OC)cc5)cc4F)c3s2)n1C`, for which the half-inhibitory concentration (IC50) (on VEGFR2 (KDR); in assay [1]) was less than 250 nM in each case.

Regarding `COCCNCc1cnc(-c2cc3nccc(Oc4ccc(NC(=O)Nc5cccc(C(N)=O)c5)cc4F)c3s2)n1C`, the IC50 (on VEGFR2 (KDR); in assay [1]) was less than 250 nM throughout. `COCCNCc1ccc(-c2cc3nccc(Oc4ccc(NC(=O)C5CC5)cc4F)c3s2)nc1`: the IC50 at VEGFR2 (KDR) was in the range of 250 to 500 nM. Still for that read-out and setting: next, `COCCNCc1ccc(-c2cc3nccc(Oc4ccc(NC(=O)Nc5cccc(C(=O)OC)c5)cc4F)c3s2)nc1`: less than 250 nM; `CNC(=O)c1cccc(NC(=O)Nc2ccc(Oc3ccnc4cc(-c5ccc(CNCCOC)cn5)sc34)c(F)c2)c1`: less than 250 nM. As to `COCCNCc1ccc(-c2cc3nccc(Oc4ccc(NC(=O)N[C@@H]5CCOC5)cc4F)c3s2)nc1`, the results for the half-inhibitory concentration (IC50) (at VEGFR2 (KDR); in assay [1]) were not below 1000 nM and less than 250 nM, respectively. `COCCNCc1ccc(-c2cc3nccc(Oc4ccc(NC(=O)CC(=O)NC5CCC5)cc4F)c3s2)nc1`: the results for the IC50 (at VEGFR2 (KDR); in assay [1]) were 250 to 500 nM and less than 250 nM, respectively. For `COCCNCc1ccc(-c2cc3nccc(Oc4ccc(NC(=O)OC5CCCCC5)cc4F)c3s2)nc1`, the IC50 on VEGFR2 (KDR) was not below 1000 nM; in assay [1], less than 250 nM.

Regarding `COCCNCc1ccc(-c2cc3nccc(Oc4ccc(NC(=O)OC5CCC5)cc4F)c3s2)nc1`, the IC50 (at VEGFR2 (KDR); in assay [1]) was less than 250 nM throughout. As for `COCCNCc1ccc(-c2cc3nccc(Oc4ccc(NC(=O)N[C@H]5CCOC5)cc4F)c3s2)nc1`, the IC50 at VEGFR2 (KDR) is 500 to 1000 nM; in assay [1], less than 250 nM. For the compound `COCCN(Cc1ccc(-c2cc3nccc(Oc4ccc(NC(=O)Nc5cccc(C(N)=O)c5)cc4F)c3s2)nc1)C(C)=O`, the IC50 (on VEGFR2 (KDR); in assay [1]) was less than 250 nM each time.

On to `COCCOCCOCCOCCN(Cc1ccc(-c2cc3nccc(Oc4ccc(NC(=O)NC5CC5)cc4F)c3s2)nc1)C(C)=O`, for which the IC50 (at VEGFR2 (KDR); in assay [1]) was less than 250 nM each time. `COCCNCc1ccc(-c2cc3nccc(Oc4ccc(NC(=O)Nc5ccn(C)n5)cc4F)c3s2)nc1`: the IC50 (on VEGFR2 (KDR); in assay [1]) was less than 250 nM throughout. Turning to `COCCNCc1ccc(-c2cc3nccc(Oc4ccc(NC(=O)Nc5cccc(C(=O)N(C)C)c5)cc4F)c3s2)nc1`, the concentration for half-maximal inhibition (IC50) (on VEGFR2 (KDR); in assay [1]) was less than 250 nM throughout.

For the compound `COCCNCc1ccc(-c2cc3nccc(Oc4ccc(NC(=O)CC(=O)Nc5cccc(C(N)=O)c5)cc4F)c3s2)nc1`, the IC50 is 250 to 500 nM on VEGFR2 (KDR) and less than 250 nM in assay [1].

Turning to `COCCNCc1ccc(-c2cc3nccc(Oc4ccc(NC(=O)CC(=O)Nc5cccc(S(C)(=O)=O)c5)cc4F)c3s2)nc1`, the concentration for half-maximal inhibition (IC50) (on VEGFR2 (KDR); in assay [1]) was less than 250 nM throughout. Take `COCCN(Cc1ccc(-c2cc3nccc(Oc4ccc(NC(=O)Nc5cccc(C(=O)N(C)C)c5)cc4F)c3s2)nc1)C(C)=O`: the concentration for half-maximal inhibition (IC50) (on VEGFR2 (KDR); in assay [1]) was less than 250 nM each time. On to `COCCNCc1ccc(-c2cc3nccc(Oc4ccc(NC(=O)NC(C)C)cc4F)c3s2)nc1`, for which the IC50 is 500 to 1000 nM on VEGFR2 (KDR) and less than 250 nM in assay [1].

On to `COCCNCc1ccc(-c2cc3nccc(Oc4ccc(NC(=O)Nc5ccc(F)cc5F)cc4F)c3s2)nc1`, for which the half-inhibitory concentration (IC50) (on VEGFR2 (KDR); in assay [1]) was less than 250 nM each time. For `O=C(Nc1ccc(Oc2ccnc3cc(-c4ccc(C5OCCCO5)cn4)sc23)c(F)c1)NC1CC1`, the IC50 (at VEGFR2 (KDR); in assay [1]) was less than 250 nM throughout.

As to `COCCN(Cc1ccc(-c2cc3nccc(Oc4ccc(NC(=O)Nc5cccc(S(C)(=O)=O)c5)cc4F)c3s2)nc1)C(=O)OC`, the half-inhibitory concentration (IC50) (at VEGFR2 (KDR); in assay [1]) was less than 250 nM in each case. With `COC[C@H](C)NCc1ccc(-c2cc3nccc(Oc4ccc(NC(=O)NC5CC5)cc4F)c3s2)nc1`, the IC50 (on VEGFR2 (KDR); in assay [1]) was less than 250 nM each time. As for `COCCN(Cc1ccc(-c2cc3nccc(Oc4ccc(NC(=O)NC5CC5)cc4F)c3s2)nc1)C(=O)OC`, at VEGFR2 (KDR), the IC50 was less than 250 nM. For the compound `CCOC(=O)N(CCOC)Cc1ccc(-c2cc3nccc(Oc4ccc(NC(=O)NC5CC5)cc4F)c3s2)nc1`, the IC50 (at VEGFR2 (KDR); in assay [1]) was less than 250 nM each time.

For the compound `COCCOCCOCCOCCNCc1ccc(-c2cc3nccc(Oc4ccc(NC(=O)NC5CC5)cc4F)c3s2)nc1` [drawing 129], the IC50 (on VEGFR2 (KDR); in assay [1]) was less than 250 nM each time. In the case of `COCCNCc1cnc(-c2cc3nccc(Oc4ccc(NC(=O)NC5CC5)cc4F)c3s2)n1C` [drawing 131], the 50% inhibitory concentration (IC50) (at VEGFR2 (KDR); in assay [1]) was less than 250 nM in each case. With `COCCNCc1cnc(-c2cc3nccc(Oc4ccc(NC(=O)Nc5ccc(F)cc5F)cc4F)c3s2)n1C` [drawing 134], the half-inhibitory concentration (IC50) (at VEGFR2 (KDR); in assay [1]) was less than 250 nM in each case. With `COCCN(Cc1cnc(-c2cc3nccc(Oc4ccc(NC(=O)NC5CC5)cc4F)c3s2)n1C)S(C)(=O)=O` [drawing 137], the IC50 (at VEGFR2 (KDR); in assay [1]) was less than 250 nM throughout. `COCCN(Cc1ccc(-c2cc3nccc(Oc4ccc(NC(=O)NC5CC5)cc4F)c3s2)nc1)C(=O)[C@H](N)C(C)C` [drawing 143]: the IC50 (on VEGFR2 (KDR); in assay [1]) was less than 250 nM in each case.

Turning to `COCCN(Cc1ccc(-c2cc3nccc(Oc4ccc(NC(=O)Nc5cccc(S(C)(=O)=O)c5)cc4F)c3s2)nc1)C(C)=O` [drawing 152], the IC50 (at VEGFR2 (KDR); in assay [1]) was less than 250 nM each time. Consider `COCCNCc1ccc(-c2cc3nccc(Oc4ccc(NC(=O)NC5CCC5)cc4F)c3s2)nc1` [drawing 153], for which the IC50 (on VEGFR2 (KDR); in assay [1]) was less than 250 nM each time.
